Data as given in patent US8962622B2, “Benzotriazole kinase modulators” (Roche Palo Alto LLC, priority 2006, dated 2015).

melting point [°C]	SMILES
233.5 to 235.4	COCC(=O)N[C@H]1CC[C@H](Nc2nccc(-n3nnc4ccccc43)n2)CC1 [Example 24, trans-N-[4-(4-Benzotriazol-1-yl-pyrimidin-2-ylamino)-cyclohexyl]-2-methoxy-acetamide]
204.9 to 206.5	O=C1CCC(Nc2nccc(-n3nnc4ccccc43)n2)CC1 [Example 16, 4-(4-benzotriazol-1-yl-pyrimidin-2-ylamino)-cyclohexanone]
202.1 to 205.6	CC1(O)CCC(Nc2nccc(-n3nnc4ccccc43)n2)CC1 (stereo not drawn) [Example 17, 4-(4-benzotriazol-1-yl-pyrimidin-2-ylamino)-1-methyl-cyclohexanol]
206.1 to 207.8	OC[C@H]1CCCC[C@H]1Nc1nccc(-n2nnc3ccccc32)n1 [Example 9, (1S,2R)-[2-(4-benzotriazol-1-yl-pyrimidin-2-ylamino)-cyclohexyl]-methanol]
205 to 210	O=C1CCC(=O)N1[C@H]1CC[C@H](Nc2nccc(-n3nnc4ccccc43)n2)CC1 [Example 15, 1-[trans-4-(4-benzotriazol-1-yl-pyrimidin-2-ylamino)-cyclohexyl]-pyrrolidine-2,5-dione]
203.5 to 204	CN(c1nccc(-n2nnc3ccccc32)n1)[C@H]1CC[C@H](N(C)S(C)(=O)=O)CC1 [Example 14, N-{trans-4-[(4-benzotriazol-1-yl-pyrimidin-2-yl)-methyl-amino]-cyclohexyl}-N-methyl-methanesulfonamide]
